From ChEMBL document CHEMBL5726269, “Phosphonate compounds for treatment of complement mediated disorders” (2017)

Biological target: Complement factor D (Homo sapiens, UniProt P00746)
Assay: Human Factor D Assay: Human factor D (purified from human serum, Complement Technology, Inc.) at 80 nM final concentration is incubated with test compound at various concentrations for 5 minutes at room temperature in 50 mM Tris, 1M NaCl, pH 7.5. A synthetic substrate Z-L-Lys-SBzl and DTNB (Ellman's reagent) are added to final concentrations of 100 μM each. The increase in color is recorded at OD405 nm in a microplate in kinetic mode over 30 minutes with 30 second time points in a spectrofluorimeter. IC50 values are calculated by non-linear regression from the percentage of inhibition of complement factor D activity as a function of test compound concentration.

Sequence of Complement factor D (P00746 whole entry): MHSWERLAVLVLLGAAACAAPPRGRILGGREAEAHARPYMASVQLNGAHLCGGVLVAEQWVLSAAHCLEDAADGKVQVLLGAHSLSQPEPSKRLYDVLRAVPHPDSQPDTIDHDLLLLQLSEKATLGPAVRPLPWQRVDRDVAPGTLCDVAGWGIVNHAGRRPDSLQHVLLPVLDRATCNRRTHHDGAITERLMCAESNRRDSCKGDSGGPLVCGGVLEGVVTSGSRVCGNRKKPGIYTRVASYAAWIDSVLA

CC(=O)c1cn(CC(=O)N2C[C@H](F)C[C@H]2C(=O)NCc2cccc(Cl)c2F)c2cc(P(=O)(Oc3ccccc3)Oc3ccccc3)ccc12
IC50: < 1000 nM
